In brackets after ≈: the same amount, converted by molar mass.
Tested on: Pasteurella multocida
Test: minimum inhibitory concentration (MIC)
Method: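 Broth microdilution MIC (Sensititre BOPO7F bovine plate, CLSI methods) of 19 antimicrobials against field isolates of P. multocida, M. haemolytica, H. somni (deep nasopharyngeal swabs) and E. coli, Enterococcus spp. (rectal swabs) from weaned dairy heifers. Incubation 16-24 h at 35 C. MIC is the lowest concentration preventing visible growth. Values with <= or > lie at the tested range limits. Trimethoprim-sulfamethoxazole is given as the trimethoprim component of a 1:19 mixture.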

CN(C)[C@@H]1C(O)=C(C(N)=O)C(=O)[C@@]2(O)C(O)=C3C(=O)c4c(O)cccc4[C@@](C)(O)[C@H]3C[C@@H]12 [Tetracycline]
Conditions | minimum inhibitory concentration [µg/mL]
isolate (source animal id): 10 | > 8
isolate (source animal id): 11 | > 8
isolate (source animal id): 12 | > 8
isolate (source animal id): 19 | > 8
isolate (source animal id): 23 | > 8
isolate (source animal id): 26 | > 8
isolate (source animal id): 98 | > 8
isolate (source animal id): 104 | > 8
isolate (source animal id): 115 | > 8
isolate (source animal id): 117 | > 8
isolate (source animal id): 118 | > 8
isolate (source animal id): 121 | > 8
isolate (source animal id): 124 | > 8
isolate (source animal id): 125 | > 8
isolate (source animal id): 128 | > 8
isolate (source animal id): 131 | > 8
isolate (source animal id): 135 | > 8
isolate (source animal id): 136 | > 8
isolate (source animal id): 140 | > 8
isolate (source animal id): 144 | > 8
isolate (source animal id): 146 | > 8
isolate (source animal id): 150 | > 8
isolate (source animal id): 151 | > 8
isolate (source animal id): 153 | > 8
isolate (source animal id): 155 | > 8
isolate (source animal id): 157 | > 8
isolate (source animal id): 160 | > 8
isolate (source animal id): 164 | > 8
isolate (source animal id): 165 | > 8
isolate (source animal id): 167 | > 8
isolate (source animal id): 168 | > 8
isolate (source animal id): 169 | 4 (≈ 9 µM)
isolate (source animal id): 170 | 8 (≈ 18 µM)
isolate (source animal id): 171 | 8 (≈ 18 µM)
isolate (source animal id): 172 | > 8
isolate (source animal id): 173 | > 8
isolate (source animal id): 174 | > 8
isolate (source animal id): 175 | > 8
isolate (source animal id): 176 | > 8
isolate (source animal id): 177 | > 8
isolate (source animal id): 178 | > 8
isolate (source animal id): 179 | 8 (≈ 18 µM)
isolate (source animal id): 182 | > 8
isolate (source animal id): 192 | > 8
isolate (source animal id): 193 | > 8
isolate (source animal id): 195 | > 8
isolate (source animal id): 196 | > 8
isolate (source animal id): 197 | > 8
isolate (source animal id): 198 | > 8
isolate (source animal id): 199 | 8 (≈ 18 µM)
isolate (source animal id): 200 | 8 (≈ 18 µM)
isolate (source animal id): 201 | 8 (≈ 18 µM)
isolate (source animal id): 203 | > 8
isolate (source animal id): 204 | > 8
isolate (source animal id): 205 | > 8
isolate (source animal id): 206 | > 8
isolate (source animal id): 207 | > 8
isolate (source animal id): 208 | 8 (≈ 18 µM)
isolate (source animal id): 209 | > 8
isolate (source animal id): 210 | > 8
isolate (source animal id): 213 | 8 (≈ 18 µM)
isolate (source animal id): 216 | 8 (≈ 18 µM)
isolate (source animal id): 223 | > 8
isolate (source animal id): 227 | > 8
isolate (source animal id): 229 | > 8
isolate (source animal id): 233 | > 8
isolate (source animal id): 234 | > 8
isolate (source animal id): 237 | > 8
isolate (source animal id): 241 | > 8
isolate (source animal id): 245 | > 8
isolate (source animal id): 247 | > 8
isolate (source animal id): 250 | > 8
isolate (source animal id): 254 | > 8
isolate (source animal id): 255 | > 8
isolate (source animal id): 258 | > 8
isolate (source animal id): 261 | > 8
isolate (source animal id): 262 | > 8
isolate (source animal id): 269 | 8 (≈ 18 µM)
isolate (source animal id): 270 | > 8
isolate (source animal id): 274 | > 8
isolate (source animal id): 275 | > 8
isolate (source animal id): 276 | > 8
isolate (source animal id): 277 | 8 (≈ 18 µM)
isolate (source animal id): 278 | > 8
isolate (source animal id): 279 | > 8
isolate (source animal id): 280 | > 8
isolate (source animal id): 284 | > 8
isolate (source animal id): 285 | > 8
isolate (source animal id): 287 | > 8
isolate (source animal id): 290 | > 8
isolate (source animal id): 294 | > 8
isolate (source animal id): 295 | > 8
isolate (source animal id): 296 | > 8
isolate (source animal id): 307 | > 8
isolate (source animal id): 310 | > 8
isolate (source animal id): 311 | > 8
isolate (source animal id): 312 | > 8
isolate (source animal id): 313 | > 8
isolate (source animal id): 315 | > 8
isolate (source animal id): 316 | > 8

Reference: the supplement of paper PMC8612539
